These results are taken from patent US6004982A, “4-piperidinyl) H-2-benzopyran derivatives useful as antipsychotic agents” (Hoechst Marion Roussel, Inc., priority 1998, dated 1999).

pKi: −log10 of the molar value. Counter-ions that a name gives are not always drawn.

T1 sequence (P14416 whole entry): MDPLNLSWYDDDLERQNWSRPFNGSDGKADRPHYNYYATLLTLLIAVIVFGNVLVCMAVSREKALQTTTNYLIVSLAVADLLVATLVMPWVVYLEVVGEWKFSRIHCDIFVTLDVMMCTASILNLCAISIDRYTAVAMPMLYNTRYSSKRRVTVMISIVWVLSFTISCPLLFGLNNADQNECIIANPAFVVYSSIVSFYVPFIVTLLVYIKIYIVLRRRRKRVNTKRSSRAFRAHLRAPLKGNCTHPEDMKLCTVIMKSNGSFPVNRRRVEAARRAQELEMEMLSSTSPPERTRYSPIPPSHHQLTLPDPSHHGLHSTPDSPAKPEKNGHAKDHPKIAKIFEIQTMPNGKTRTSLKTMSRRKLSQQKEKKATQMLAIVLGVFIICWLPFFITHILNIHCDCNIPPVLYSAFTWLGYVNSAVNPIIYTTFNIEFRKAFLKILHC

The test system of the first test is apomorphine-induced climbing in CD-1 male mice. Kind of test: Climbing mouse assay (CMA), antagonism of apomorphine-induced climbing. Format: in vivo. Conditions: ip, Table I, compounds of the invention, i.p. 30 min before apomorphine 1.5 mg/kg s.c. The procedure: CLIMBING MOUSE ASSAY (CMA)
This test may be used as to identify compounds useful in treating psychosis. Costall, B. et al, Eur. J. Pharm. 50: 39-50 (1978); Protais, P., et al., Psychopharmacology 50:1-6 (1976). […] This effect of apomorphine is antagonized by the D2 receptor antagonist.
CD-1 male mice (20-30 grams) are assigned to groups of 8 and individually placed in wire mesh stick cages and allowed one hour for adaptation to new environment. Apomorphine is injected at 1.5 mg/kg subcutaneously which is a dose which causes climbing in all subjects for thirty minutes. Test compounds are administered intraperitoneally thirty minutes prior to the apomorphine administration at a dose of 20 mg/kg.
For evaluation of climbing, three readings are taken at ten, twenty and thirty minutes after apomorphine administration according to the following scale:
4 paws on bottom (no climbing) 0
2 paws on the wall (rearing) 1
4 paws on the wall (full climb) 2
The climbing scores are individually totaled (maximal score: 6 per mouse over three readings) and total score of the control (vehicle intraperitoneally (ip) and apomorphine subcutaneous) is set to 100%. ED50 values with 95% confidence limits calculated by a linear regression analysis of some of the compounds of the present invention as well as a standard antipsychotic agent (clozapine) are presented in Table 1.
Broadly, the ED50 is the midpoint of the dose-response relation. A low value points to an effect at a small dose. For the molecule `NC[C@@H]1O[C@H](C2CCN(CCc3ccccc3)CC2)Cc2c1ccc(O)c2O` (relative stereo) [Example 4D, cis-1-(Aminomethyl)-3,4-dihydro-3-[1-(2-phenylethyl)-4-piperidinyl]-1H-2-benzopyran-5,6-diol Dihydrobromide Sesquihydrate], the ED50 is 8.1 mg/kg.

A further test concerns the target T1, human dopamine D2L receptor (Human D2Long Receptors) (Homo sapiens, UniProt P14416).
T1 construct: expressed in transfected cells
Put plainly: Human dopamine D2L receptor binding assay ([3H]N-methyl spiroperidol displacement).
Conditions: not given
The procedure:
A single high expressing clonal cell line was isolated and membranes from this cell line were used for receptor binding assays. […] The incubation buffer contained: 50 mM Tris, 120 mM NaCl; 5 mM Kcl; 2 mM CaCl2; 1 mM MgCl2; pH 7.7). […] Incubations were performed at 37° C. in a shaking water bath for 30 min, terminated by rapid filtration through Whatman GF/B filters (presoaked in 0.3% polyethyleneimine), and counted in a liquid scintillation counter. Non-specific binding was defined as that remaining in the presence of 3 μM eticlopride. […] The percent inhibition at each drug concentration was the average of duplicate determinations. […] Cheng-Prisoff determination (Ki's) are performed using Prism software.
Usually pKi stands for −log10 of the Ki, conventionally taken in molar units. Take `O=CNC[C@@H]1O[C@H](C2CCN(CCc3cccs3)CC2)Cc2c1ccc1c2OC2(CCCCC2)O1` (relative stereo) [Example 24, cis-N-[5,6-(cyclohexylidinedioxy)-3,4-dihydro-3-[1(2-(thiophen-2-yl)ethyl)-4-piperidinyl]-1H-2-benzofuran-1-ylmethyl]formamide]: the pKi was 6.30.

The molecule `COc1cc(C(C)=O)ccc1OCCCN1CCC([C@@H]2Cc3c(ccc4c3OC3(CCCCC3)O4)[C@H](CNC=O)O2)CC1` (relative stereo) [Example 30, cis-N-[3-[1-[3-(4-acetyl-2-methoxyphenoxy)propyl]-4-piperidinyl]-5,6-(cyclohexylidenedioxy)-3,4-dihydro-1H-2-benzopyran-1-ylmethyl]formamide oxalate Trihydrate] showed a pKi of 6.07.

Staying with this test, now noted: Table 2; [3H]N-methyl spiroperidol 0.4 nM; CHO membranes; 37° C., 30 min; pH 7.7; read-out: Ki.
Consider `NC[C@@H]1O[C@H](C2CCN(CCCC(c3ccc(F)cc3)c3ccc(F)cc3)CC2)Cc2c1ccc(O)c2O` (relative stereo) [Example 29, cis-1-(Aminomethyl)3-[1-[4,4-bis-(4-fluorophenyl)butyl]-4-piperidinyl]-1H-2-benzopyran-5,6-diol Dihydrochloride Dihydrate], for which the pKi is 7.04.

For `COc1ccc(CCN2CCC([C@@H]3Cc4c(ccc(O)c4O)[C@H](CN)O3)CC2)cc1` (relative stereo) [Example 11, cis-1-(Aminomethyl)-3,4-dihydro-3-[1-[2-(4-methoxyphenyl)ethyl]-4-piperidinyl]-1H-2-benzopyran-5,6-diol Dihydrochloride], the pKi was 5.92.

`NC[C@@H]1O[C@H](C2CCNCC2)Cc2c1ccc(O)c2O` (relative stereo) [Example 33, cis-1-(Aminomethyl)-3,4-dihydro-3-(4-piperidinyl)-1H-2-benzopyran-5,6-diolDihydrochloride 0.3 Hydrate]: the pKi was 5.41.

Take `CNC[C@@H]1O[C@H](C2CCN(CCc3ccc(Cl)cc3)CC2)Cc2c1ccc(O)c2O` (relative stereo) [Example 15, cis-3-[1-[2-(4-Chlorophenyl)ethyl]-4-piperidinyl]-3,4-dihydro-1-(N-methylaminomethyl)-1H-2-benzopyran-5,6-diol dihydrochloride hemihydrate]: the pKi was 6.38.

Consider `NC[C@@H]1O[C@H](C2CCN(CCCC(c3ccc(F)cc3)c3ccc(F)cc3)CC2)Cc2c1ccc1c2OC2(CCCCC2)O1` (relative stereo) [Example 39, cis-1-Aminomethyl-5,6-(cyclohexylidenedioxy)-3,4-dihydro-3-[1-[4,4-bis(4-fluorophenyl)butyl]-4-piperidinyl]-1H-2-benzopyran Dioxalate 2.4 Hydrate], for which the pKi was 6.82.

Regarding `NC[C@@H]1O[C@H](C2CCN(CCOc3ccccc3)CC2)Cc2c1ccc(O)c2O` (relative stereo) [Example 23, cis-1-(Aminomethyl)-3,4-dihydro-3-[1(2-phenoxyethyl)-4-piperidinyl]-1H-2-benzopyran-5,6-diol dihydrochloride 0.4 hydrate], the negative-log Ki (pKi) was 6.30.

In the case of `COc1cc(C(C)=O)ccc1OCCCN1CCC([C@@H]2Cc3c(ccc(O)c3O)[C@H](CN)O2)CC1` (relative stereo) [Example 31, cis-1-(3-[3-[4-[1-(Aminomethyl)-3,4-dihydro-5,6-dihydroxy-1H-2-benzopyran-3-yl]-1-piperidinyl]propoxy]-3-methoxyphenyl)ethanone Dihydrochloride Dihydrate], the pKi was 5.96.

As to `NC[C@@H]1O[C@H](C2CCN(CCc3ccc(Cl)cc3)CC2)Cc2c1ccc(O)c2O` (relative stereo) [Example 14, cis-1-(Aminomethyl)-3-[1-[2-(4-chlorophenyl)ethyl]-3,4-dihydro-4-piperidinyl]-1H-2-benzopyran-5,6-diol dihydrochloride], the pKi is 6.30.

As for `NC[C@@H]1O[C@H](C2CCN(CCCn3c(=O)[nH]c4ccccc43)CC2)Cc2c1ccc(O)c2O` (relative stereo) [Example 34, cis-1-[3-[4-(1-Aminomethyl-3,4-dihydro-5,6-dihydroxy-1H-2-benzopyran-3-yl)-1-piperidinyl]propyl]-1,3-dihydrobenzimidazol-2-one Dihydrochloride 1.33 Hydrate], the pKi was 6.36.

Turning to `NC[C@@H]1O[C@H](C2CCN(CCc3ccccc3)CC2)Cc2c1ccc(O)c2O` (relative stereo) [Example 4D, cis-1-(Aminomethyl)-3,4-dihydro-3-[1-(2-phenylethyl)-4-piperidinyl]-1H-2-benzopyran-5,6-diol Dihydrobromide Sesquihydrate], the pKi was 5.96.
